Reference: US8551984B2, “Aminopyrimidines as SYK inhibitors” (Merck Sharp & Dohme Corp., priority 2009, dated 2013)

Biological target: rhSYK (Homo sapiens, UniProt P43405)
Assay: biochemical
Conditions: not given

| SMILES | IC50 [nM] |
| --- | --- |
| CC1(C)C[C@@](O)(c2ncc(-c3cc(Cl)cc(Nc4nccc(C(F)(F)F)n4)c3)s2)CC[C@@H]1C(N)=O [Example 119-144] | < 100 |
| NC(=O)[C@H]1CC[C@](O)(c2ncc(-c3cc(Cl)cc(Nc4nccc(C(F)(F)F)n4)c3)s2)CC1 [Example 119-145] | < 100 |

The remaining lines, values ahead:

| IC50 [nM] | SMILES |
| --- | --- |
| < 100 | Cc1cc(Nc2nccc(C(F)(F)F)n2)cc(-c2cnc([C@]3(O)CC[C@@H](C(=O)NC(CO)CO)CC3)s2)c1 [Example 191-33] |
| < 100 | Cc1cc(Nc2nccc(C(F)(F)F)n2)cc(-c2cnc(C3(O)CCC(C(=O)NCc4cccnc4)CC3)s2)c1 (stereo not shown) [Example 191-52] |
| < 100 | Cc1cc(Nc2nccc(C(F)(F)F)n2)cc(-c2cnc([C@]3(O)CC[C@@H](C(=O)NCc4ccncc4)CC3)s2)c1 [Example 191-53] |
| < 100 | CC1(C)CC(O)(c2ncc(-c3cc(CO)cc(Nc4nccc(C(F)(F)F)n4)c3)s2)CCC1C(N)=O (stereo not shown) [Example 191-141] |

System: PGD2
Assay: not given
Conditions: dosed intranasally, phase I/II study, allergic rhinitis; cited from earlier work

| SMILES | decrease in PGD2 |
| --- | --- |
| Oc1cccc(Nc2ncc(F)c(Nc3cccc(O)c3)n2)c1 [Example R112] | statistically significant decrease |
